Results as given in ChEMBL document CHEMBL4651402, “Screening of ~5500 FDA-approved drugs and clinical candidates for anti-SARS-CoV-2 activity” (2021).
pIC50: −log10 of the molar value.

Test system: SARS-CoV-2
Experiment: microbe, parasite or virus in culture
Conditions: Severe acute respiratory syndrome coronavirus 2, Vero C1008, 48 h; for IC50: read-out: pIC50 (converted)

Row | Compound | pIC50 | IC50 [µM]
1 | O=C1CN(/N=C/c2ccc(-c3ccc([N+](=O)[O-])cc3)o2)C(=O)N1 [DANTROLENE] | < 4.70 | > 20
2 | CO[C@@H](C(=O)N1Cc2[nH]nc(NC(=O)c3ccc(N4CCN(C)CC4)cc3)c2C1)c1ccccc1 [DANUSERTIB] | < 4.70 | > 20
3 | CCOc1ccc(Cc2cc([C@@H]3O[C@H](CO)[C@@H](O)[C@H](O)[C@H]3O)ccc2Cl)cc1 [DAPAGLIFLOZIN] | < 4.70 | > 20
4 | Cc1cc(C)c(Nc2ccnc(Nc3ccc(C#N)cc3)n2)c(C)c1 [DAPIVIRINE] | < 4.70 | > 20
5 | O=C(/C=C/c1cccnc1)NCCCCC1CCN(C(=O)c2ccccc2)CC1 [DAPORINAD] | < 4.70 | > 20
6 | CN(C)[C@@H](CCOc1cccc2ccccc12)c1ccccc1 [DAPOXETINE] | < 4.70 | > 20
7 | O=C(O)CNC(=O)C1C(=O)N(C2CCCCC2)C(=O)N(C2CCCCC2)C1=O [DAPRODUSTAT] | < 4.70 | > 20
8 | Nc1ccc(S(=O)(=O)c2ccc(N)cc2)cc1 [DAPSONE] | < 4.70 | > 20
9 | CCOC(=O)C1=C(C)NC(C)=C(C(=O)OCC)C1c1cccc2nonc12 [DARODIPINE] | < 4.70 | > 20
10 | CC(O)c1cc(C(=O)N[C@@H](C)Cn2ccc(-c3ccc(C#N)c(Cl)c3)n2)n[nH]1 (stereo partly specified) [DAROLUTAMIDE] | < 4.70 | > 20
11 | CC1(N)CCN(c2cccnc2NC(=O)c2nc(-c3ncccc3C(F)(F)F)cnc2N)CC1 [DAROVASERTIB] | < 4.70 | > 20
12 | Cc1nc(Nc2ncc(C(=O)Nc3c(C)cccc3Cl)s2)cc(N2CCN(CCO)CC2)n1 [DASATINIB] | < 4.70 | > 20
13 | N[C@@H]1CC[C@@H](c2ccc(Cl)c(Cl)c2)c2ccccc21 [DASOTRALINE] | < 4.70 | > 20
14 | COc1cccc2c1C(=O)c1c(O)c3c(c(O)c1C2=O)C[C@@](O)(C(C)=O)C[C@@H]3O[C@H]1C[C@H](N)[C@H](O)[C@H](C)O1 [DAUNORUBICIN] | < 4.70 | > 20
15 | COc1cc(CC(=O)NCCCc2ccc(C)c(C)c2)ccc1OCCN [DAVASAICIN] | < 4.70 | > 20
16 | OC(C1=NCCN1)(c1ccc(Cl)cc1)c1ccccn1 (stereo unspecified) [DAZADROL] | < 4.70 | > 20
17 | Cc1c(Cn2ccnc2)c2ccccc2n1CCC(=O)O [DAZMEGREL] | < 4.70 | > 20
18 | CCN1CC(NC(=O)c2cc(Cl)c(N)cc2OC)CN1CC [DAZOPRIDE] | < 4.70 | > 20
19 | O=C(O)c1ccc(OCCn2ccnc2)cc1 [DAZOXIBEN] | < 4.70 | > 20
20 | CC(N)C(=O)c1ccccc1 (stereo unspecified) [DEALKYLATED DIETHYLPROPION] | < 4.70 | > 20

Row | Compound | pIC50 | IC50 [µM]
21 | N=C(N)N1CCc2ccccc2C1 [DEBRISOQUIN] | < 4.70 | > 20
22 | C[N+](C)(C)CCCCCCCCCC[N+](C)(C)C [DECAMETHONIUM] | < 4.70 | > 20
23 | CC[C@@](C)(Nc1ccnc(-c2c[nH]c3ncccc23)n1)C(=O)NCC(F)(F)F [DECERNOTINIB] | < 4.70 | > 20
24 | Nc1ncn([C@H]2C[C@H](O)[C@@H](CO)O2)c(=O)n1 [DECITABINE] | < 4.70 | > 20
25 | CCN(CC)CCNC(=O)c1ccc(N)c(Cl)c1 [DECLOPRAMIDE] | < 4.70 | > 20
26 | Nc1ccc(C#Cc2cnn3c(C(F)(F)F)cc(-c4ccc(C(F)(F)F)cc4)nc23)cn1 [DECOGLURANT] | < 4.70 | > 20
27 | CNC(=O)c1ccc(Nc2ncc(C(F)(F)F)c(NCc3nccnc3N(C)S(C)(=O)=O)n2)cc1 [DEFACTINIB] | < 4.70 | > 20
28 | Cc1c(O)c(=O)ccn1C [DEFERIPRONE] | < 4.70 | > 20
29 | CC(=O)N(O)CCCCCNC(=O)CCC(=O)N(O)CCCCCNC(=O)CCC(=O)N(O)CCCCCN [DEFEROXAMINE] | < 4.70 | > 20
30 | CC(=O)OCC(=O)[C@@]12N=C(C)O[C@@H]1C[C@H]1[C@@H]3CCC4=CC(=O)C=C[C@]4(C)[C@H]3[C@@H](O)C[C@@]12C [DEFLAZACORT] | < 4.70 | > 20
31 | COc1cc2c(cc1OC)[C@@H]1C(=O)c3ccc4c(c3O[C@@H]1CO2)C=CC(C)(C)O4 [DEGUELIN] | < 4.70 | > 20
32 | CC(=O)C1C(=O)C=C(C)OC1=O (stereo unspecified) [DEHYDROACETIC ACID] | < 4.70 | > 20
33 | CC(=O)O[C@H]1CC[C@@]2(C)C(=CC[C@@H]3[C@@H]2CC[C@]2(C)C(=O)CC[C@@H]32)C1 [DEHYDROEPIANDROSTERONE ACETATE] | < 4.70 | > 20
34 | CC(C)Nc1cccnc1N1CCN(C(=O)c2cc3cc(NS(C)(=O)=O)ccc3[nH]2)CC1 [DELAVIRDINE] | < 4.70 | > 20
35 | O=C1CN=C(c2ccccc2Cl)c2cc(Cl)ccc2N1 [DELORAZEPAM] | < 4.70 | > 20
36 | CN(C)[C@@H]1C(O)=C(C(N)=O)C(=O)[C@@]2(O)C(O)=C3C(=O)c4c(O)ccc(Cl)c4[C@@H](O)[C@H]3C[C@@H]12 [DEMECLOCYCLINE] | < 4.70 | > 20
37 | CC[N+](CC)(CC(=O)Nc1c(C)cccc1C)Cc1ccccc1 [DENATONIUM] | < 4.70 | > 20
38 | OC(Cn1ccnc1)c1ccc(CCc2ccccc2)cc1 (stereo unspecified) [DENZIMOL] | < 4.70 | > 20
39 | CNCCc1ccc(O)c(O)c1 [DEOXIEPINEPHRINE] | < 4.70 | > 20
40 | OC[C@H]1NC[C@@H](O)[C@@H](O)[C@@H]1O [DEOXYMANNOJIRIMYCIN] | < 4.70 | > 20

Row | Compound | pIC50 | IC50 [µM]
41 | CC(=O)[C@@]1(O)CC[C@H]2[C@@H]3CCC4=CC(=O)C=C[C@]4(C)[C@H]3[C@@H](O)C[C@@]21C [DEPRODONE] | < 4.70 | > 20
42 | CNCCCN1c2ccccc2CCc2ccccc21 [DESIPRAMINE] | < 4.70 | > 20
43 | C[C@@H]1C[C@H]2[C@@H]3CCC4=CC(=O)C=C[C@]4(C)[C@@]3(F)[C@@H](O)C[C@]2(C)[C@H]1C(=O)CO [DESOXIMETASONE] | < 4.70 | > 20
44 | CC(=O)OCC(=O)[C@H]1CC[C@H]2[C@@H]3CCC4=CC(=O)CC[C@]4(C)[C@H]3CC[C@]12C [DESOXYCORTICOSTERONE ACETATE] | < 4.70 | > 20
45 | CC(C)(C)C(=O)OCC(=O)[C@H]1CC[C@H]2[C@@H]3CCC4=CC(=O)CC[C@]4(C)[C@H]3CC[C@]12C [DESOXYCORTICOSTERONE PIVALATE] | < 4.70 | > 20
46 | C[C@]12CC[C@H]3[C@@H](CCC4=CC(=O)CC[C@@]43C)[C@@H]1CC[C@@H]2C(=O)CO [DESOXYCORTICOSTERONE] | < 4.70 | > 20
47 | CN(C)CC(c1ccc(O)cc1)C1(O)CCCCC1 (stereo unspecified) [DESVENLAFAXINE] | < 4.70 | > 20
48 | Cc1cccc(Cc2c[nH]cn2)c1C [DETOMIDINE] | < 4.70 | > 20
49 | CN1C(=O)[C@@H](NC(=O)c2cc3ccccc3[nH]2)N=C(c2ccccc2)c2ccccc21 [DEVAZEPIDE] | < 4.70 | > 20
50 | C[C@@H]1C[C@H]2[C@@H]3CCC4=CC(=O)C=C[C@]4(C)[C@@]3(F)[C@@H](O)C[C@]2(C)[C@@]1(O)C(=O)CO [DEXAMETHASONE] | < 4.70 | > 20
51 | c1ccc([C@@H]2CN3CCSC3=N2)cc1 [DEXAMISOLE] | < 4.70 | > 20
52 | CN(C)CC[C@@H](c1ccc(Cl)cc1)c1ccccn1 [DEXCHLORPHENIRAMINE] | < 4.70 | > 20
53 | O=C1CC[C@@](c2ccccc2)(C2CCN(Cc3ccccc3)CC2)C(=O)N1 [DEXETIMIDE] | < 4.70 | > 20
54 | COC(=O)C1=C(C)NC(C)=C(C(=O)OCCCN2CCC(c3ccccc3)(c3ccccc3)CC2)[C@@H]1c1cccc([N+](=O)[O-])c1 [DEXNIGULDIPINE] | < 4.70 | > 20
55 | CC(C)(CO)[C@@H](O)C(=O)NCCCO [DEXPANTHENOL] | < 4.70 | > 20
56 | C[C@@H](CN1CC(=O)NC(=O)C1)N1CC(=O)NC(=O)C1 [DEXRAZOXANE] | < 4.70 | > 20
57 | CCN(CCCC(=O)C1CCCCC1)[C@@H](C)Cc1ccc(OC)cc1 [DEXSECOVERINE] | < 4.70 | > 20
58 | CCOC(=O)[C@]1(c2ccccc2)CCC=C[C@H]1N(C)C [DEXTILIDINE] | < 4.70 | > 20
